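Five concentrations, 48 hours, 96-well plates. GI50 = concentration required for 50% inhibition of growth. TGI: total growth inhibition.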
Experiments:
Test in all cases: growth of human tumour cells (NCI), 48 h
UO-31 renal = system: UO-31 renal
OVCAR-5 ovarian = system: OVCAR-5 ovarian
KM12 colon = system: KM12 colon
SF-539 CNS = system: SF-539 CNS
SK-OV-3 ovarian = system: SK-OV-3 ovarian
HCT-15 colon = system: HCT-15 colon
NCI/ADR-RES ovarian = system: NCI/ADR-RES ovarian
786-0 renal = system: 786-0 renal
TK-10 renal = system: TK-10 renal
NCI-H460 lung = system: NCI-H460 lung

Cc1cc(C)c(-c2c(O)c(Br)c(-c3c(C)cc(C)c(Br)c3C)c(O)c2Br)c(C)c1Br
GI50 (UO-31 renal): 1.29 µM
TGI (UO-31 renal): 8.22 µM
GI50 (OVCAR-5 ovarian): 2.85 µM
TGI (OVCAR-5 ovarian): 9.63 µM
GI50 (KM12 colon): 3.47 µM
TGI (KM12 colon): 13.1 µM
GI50 (SF-539 CNS): 2.6 µM
TGI (SF-539 CNS): 8.11 µM
GI50 (SK-OV-3 ovarian): 4.77 µM
TGI (SK-OV-3 ovarian): 23.8 µM
GI50 (HCT-15 colon): 2.51 µM
TGI (HCT-15 colon): 10.8 µM
GI50 (NCI/ADR-RES ovarian): 2.88 µM
TGI (NCI/ADR-RES ovarian): 10.7 µM
GI50 (786-0 renal): 3.74 µM
TGI (786-0 renal): 14.3 µM
GI50 (TK-10 renal): 3.37 µM
TGI (TK-10 renal): 13.4 µM
GI50 (NCI-H460 lung): 2.16 µM
TGI (NCI-H460 lung): 6.5 µM

COc1cc(C=NCC(=O)CSC(c2ccccc2)c2ccccc2)ccc1O
GI50 (UO-31 renal): 12.7 µM
TGI (UO-31 renal): 29.1 µM
GI50 (OVCAR-5 ovarian): 16.4 µM
TGI (OVCAR-5 ovarian): 30.4 µM
GI50 (KM12 colon): 11.9 µM
TGI (KM12 colon): 26.3 µM
GI50 (SF-539 CNS): 14.8 µM
TGI (SF-539 CNS): 29.1 µM
GI50 (SK-OV-3 ovarian): 3.58 µM
TGI (SK-OV-3 ovarian): 17.2 µM
GI50 (HCT-15 colon): 13.8 µM
TGI (HCT-15 colon): 30.8 µM
GI50 (NCI/ADR-RES ovarian): 7.78 µM
TGI (NCI/ADR-RES ovarian): 29.2 µM
GI50 (786-0 renal): 14.9 µM
TGI (786-0 renal): 28.2 µM
GI50 (TK-10 renal): 14.7 µM
TGI (TK-10 renal): 53.7 µM
GI50 (NCI-H460 lung): 20.1 µM
TGI (NCI-H460 lung): 56.2 µM

COc1c(OC2OC(C)C(O)C(O)C2O)c(OC)c2oc(-c3ccc(O)cc3)cc(=O)c2c1O (stereo not given)
GI50 (UO-31 renal): 22.8 µM
TGI (UO-31 renal): > 100 µM
GI50 (OVCAR-5 ovarian): > 100 µM
TGI (OVCAR-5 ovarian): > 100 µM
GI50 (KM12 colon): 39.7 µM
TGI (KM12 colon): > 100 µM
GI50 (SF-539 CNS): 34.3 µM
TGI (SF-539 CNS): 90.5 µM
GI50 (SK-OV-3 ovarian): 86.3 µM
TGI (SK-OV-3 ovarian): > 100 µM
GI50 (HCT-15 colon): 40.3 µM
TGI (HCT-15 colon): > 100 µM
GI50 (NCI/ADR-RES ovarian): 87.2 µM
TGI (NCI/ADR-RES ovarian): > 100 µM
GI50 (786-0 renal): 50.7 µM
TGI (786-0 renal): > 100 µM
GI50 (TK-10 renal): 72.2 µM
TGI (TK-10 renal): > 100 µM
GI50 (NCI-H460 lung): 27.7 µM
TGI (NCI-H460 lung): 81.4 µM

CCN(CC)c1ccc(/C=N/N=C(N)N)cc1
GI50 (UO-31 renal): 6.78 µM
TGI (UO-31 renal): 38.9 µM
GI50 (OVCAR-5 ovarian): 17.1 µM
TGI (OVCAR-5 ovarian): > 100 µM
GI50 (KM12 colon): 3.47 µM
TGI (KM12 colon): 16.4 µM
GI50 (SF-539 CNS): 5.06 µM
TGI (SF-539 CNS): 30.5 µM
GI50 (SK-OV-3 ovarian): 3.47 µM
TGI (SK-OV-3 ovarian): 14 µM
GI50 (HCT-15 colon): 4.76 µM
TGI (HCT-15 colon): 55.8 µM
GI50 (NCI/ADR-RES ovarian): 5.44 µM
TGI (NCI/ADR-RES ovarian): 29.8 µM
GI50 (786-0 renal): 6.2 µM
TGI (786-0 renal): 20.7 µM
GI50 (TK-10 renal): 7.87 µM
TGI (TK-10 renal): 28.4 µM
GI50 (NCI-H460 lung): 3.57 µM
TGI (NCI-H460 lung): 15.1 µM

S=C(Nc1ccc(-c2nc3ccccc3s2)cc1)Nc1ccc(-c2nc3ccccc3s2)cc1
GI50 (UO-31 renal): 12.4 µM
TGI (UO-31 renal): 34 µM
GI50 (OVCAR-5 ovarian): 20.1 µM
TGI (OVCAR-5 ovarian): 48.8 µM
GI50 (KM12 colon): 20.1 µM
TGI (KM12 colon): > 100 µM
GI50 (SF-539 CNS): 16.6 µM
TGI (SF-539 CNS): 42.4 µM
GI50 (SK-OV-3 ovarian): 58.8 µM
TGI (SK-OV-3 ovarian): > 100 µM
GI50 (HCT-15 colon): 15.4 µM
TGI (HCT-15 colon): 35.7 µM
GI50 (NCI/ADR-RES ovarian): 22.5 µM
TGI (NCI/ADR-RES ovarian): 52 µM
GI50 (786-0 renal): 28 µM
TGI (786-0 renal): 83.2 µM
GI50 (TK-10 renal): 18.3 µM
TGI (TK-10 renal): 63.2 µM
GI50 (NCI-H460 lung): 21 µM
TGI (NCI-H460 lung): 63.9 µM

COc1ccc(C(=O)c2ccccc2)c(O)c1
GI50 (UO-31 renal): 17 µM
TGI (UO-31 renal): > 100 µM
GI50 (OVCAR-5 ovarian): > 100 µM
TGI (OVCAR-5 ovarian): > 100 µM
GI50 (KM12 colon): 63 µM
TGI (KM12 colon): > 100 µM
GI50 (SF-539 CNS): > 100 µM
TGI (SF-539 CNS): > 100 µM
GI50 (SK-OV-3 ovarian): > 100 µM
TGI (SK-OV-3 ovarian): > 100 µM
GI50 (HCT-15 colon): 80.7 µM
TGI (HCT-15 colon): > 100 µM
GI50 (NCI/ADR-RES ovarian): 53.1 µM
TGI (NCI/ADR-RES ovarian): > 100 µM
GI50 (786-0 renal): > 100 µM
TGI (786-0 renal): > 100 µM
GI50 (TK-10 renal): > 100 µM
TGI (TK-10 renal): > 100 µM
GI50 (NCI-H460 lung): 88.4 µM
TGI (NCI-H460 lung): > 100 µM

COc1ccc(C(=O)Cn2c(C(=O)c3ccc(Cl)cc3)nc(-c3ccccc3)c2-c2ccccc2)cc1
GI50 (UO-31 renal): > 100 µM
TGI (UO-31 renal): > 100 µM
GI50 (OVCAR-5 ovarian): > 100 µM
TGI (OVCAR-5 ovarian): > 100 µM
GI50 (KM12 colon): > 100 µM
TGI (KM12 colon): > 100 µM
GI50 (SF-539 CNS): 52.3 µM
TGI (SF-539 CNS): > 100 µM
GI50 (SK-OV-3 ovarian): 60.1 µM
TGI (SK-OV-3 ovarian): > 100 µM
GI50 (HCT-15 colon): > 100 µM
TGI (HCT-15 colon): > 100 µM
GI50 (NCI/ADR-RES ovarian): > 100 µM
TGI (NCI/ADR-RES ovarian): > 100 µM
GI50 (786-0 renal): 79.6 µM
TGI (786-0 renal): > 100 µM
GI50 (TK-10 renal): 46.5 µM
TGI (TK-10 renal): > 100 µM
GI50 (NCI-H460 lung): > 100 µM
TGI (NCI-H460 lung): > 100 µM

Source: PubChem BioAssay (NCI)
